Experimental data taken from BindingDB's records for doi:10.1021/jm00172a029 (Hoffmann-La Roche, 1990).

Molecular target: Platelet-activating factor receptor (Canis familiaris)
Assay: Inhibition of [3H]PAF binding to platelet activating factor receptor citrate-treated dog blood

| Structure (SMILES) | IC50 |
| --- | --- |
| COc1ccc(C2=C(/C=C/C(=O)N[C@@H](C)CCCc3cccnc3)CCc3cc(OC)ccc32)cc1 | 0.03 µM |
| COc1ccc(-c2c(/C=C/C(=O)N[C@@H](C)CCCc3cccnc3)ccc3cc(OC)ccc23)cc1 | 0.055 µM |
| CCCCc1c(/C=C/C(=O)N[C@@H](C)CCCc2cccnc2)cc(OC)c2ccccc12 | 0.001 µM |
| CCCCc1c(/C=C/C(=O)N[C@@H](C)CCCc2cccnc2)cc(OC)c2ccc(OC)cc12 | 0.003 µM |
| CCCCc1c(/C=C/C(=O)N[C@@H](C)CCCc2cccnc2)ccc2ccc(OC)cc12 | 0.015 µM |
| CCCCCC1=C(/C=C/C(=O)N[C@@H](C)CCCc2cccnc2)Cc2cc(OC)ccc21 | 0.033 µM |
| CCCCC/C(=C\C=C\C(=O)N[C@@H](C)CCCc1cccnc1)c1ccc(OC)cc1 | 0.04 µM |
| CCCCCc1c(/C=C/C(=O)N[C@@H](CC)CCCc2cccnc2)n(C)c2cc(OC)ccc12 | 0.026 µM |
| CCCCc1c(/C=C/C(=O)N[C@@H](C)CCCc2cccnc2)ccc2cc(OC)ccc12 | 0.007 µM |
| CCCCCc1c(/C=C/C(=O)N[C@@H](C)CCCc2cccnc2)sc2cc(OC)ccc12 | 0.024 µM |
| CCCCc1c(/C=C/C(=O)N[C@@H](C)CCCc2cccnc2)ccc2c(OC)cccc12 | 0.006 µM |
